The subject of assay [1] is virus. Description: plaque reduction (PR) test, antiviral activity in monolayer cell culture. It counts as cell-based. Particulars: compound in nutrient agarose overlay, 50% effective dose vs control, read-out: PR (ED50 /μM). How it is done:
(§1) Activity may be detected by the plaque inhibition (PI) test and measured by the plaque reduction (PR) test. Both assays involve the formation of a monolayer cell culture in a petri dish followed by infection with a virus suspension, and then overlaying the culture with nutrient agarose in the form of a gel. This gel ensures that there is no spread of virus throughout the culture and thus areas of localised cell destruction of plaques are formed.
Detectable activity is measured with the plaque reduction assay. A range of concentrations of compound of known molarity are incorporated in the nutrient agarose overlay. Plaque suppression is proportional to compound concentration. Plaque numbers are expressed as percentages of a control, and a dose responsecurve may be drawn. From this curve 50% of the effective dose (ED50) may be estimated.

The test system of assay [2] is virus. Nature of the assay: Intranasal administration simulation in vitro (compound on lid of petri dish, inhibition of plaque formation). It counts as cell-based. The following applies: 1 μg compound spread on inside of petri dish lid, agarose-covered cells.
Description: as §1
In the plaque inhibition test a filter paper disc which holds 0.01 ml when impregnated with a solution of compound is placed on top of the agarose gel. The compound may then diffuse throughout the gel so that its greatest concentration will be around the disc and its lowest concentration towards the periphery of the petri dish. The efficacy of the compound may be detected by observing the zone inhibition of plaque formation.
Petri dishes were prepared, as for the plaque inhibition test and the confluent sheet of cells was covered with a layer of agarose gel. The compound, trans-3-methylflavan (1 μg) was dissolved in ethanol, and applied to the lids of the petri dishes. When the ethanol had evaporated, leaving the compound spread over the inside of the lids, these were replaced on the petri dishes.

For `Clc1cccc2c1O[C@@H]1c3ccccc3C[C@@H]1C2` (relative stereo) [Example 8, cis-6-chloro-4b,10,10a,11-tetrahydrobenz(b)indeno(2,1-e)pyran], in the assay on virus [1], the EC50 came to 1.5 µM.
Same read-out and setting: the value for `C[C@H]1Cc2ccccc2O[C@H]1c1ccccc1` (relative stereo) [Example 3, cis-3-methylflavan] was 1.1 µM; that for `c1ccc2c(c1)C[C@H]1Cc3ccccc3[C@H]1O2` (relative stereo) [Example 5, cis-4b,10,10a,11-tetrahydrobenz(b)indeno(2,1-e)pyran] was 0.38 µM.
Still for that read-out and setting: in the case of `C[C@@H]1Cc2cc(Cl)ccc2O[C@H]1c1ccc(Cl)cc1` (relative stereo) [Example 2, trans-4',6-dichloro-3-methylflavan] it was 0.135 µM; in that of `c1ccc2c(c1)C[C@@H]1CCc3ccccc3[C@@H]1O2` (relative stereo) [Example 6, cis-5,6,6a,12a-tetrahydro-7H-benzo(c)xanthene], 0.03 µM.
As for `Clc1cc(Cl)c2c(c1)C[C@H]1Cc3ccccc3[C@H]1O2` (relative stereo) [Example 9, Cis-6,8-dichloro-4b,10,10a,11-tetrahydrobenz(b)indeno(2,1-e)pyran], the EC50 with virus [1] was 0.57 µM.
Same read-out and setting: the value for `Clc1cc(Cl)c2c(c1)C[C@@H]1CCc3ccccc3[C@@H]1O2` (relative stereo) [Example 7, cis-9,11-dichloro-5,6,6a,12a-tetrahydro-7H-benzo(c)xanthene] was 6 µM.
As to `C[C@@H]1Cc2ccccc2O[C@H]1c1ccccc1` (relative stereo) [Example 1, trans-3-methylflavan], the EC50 with virus [1] is 0.125 µM. The “inhibition of plaque formation” value in the assay with virus [2] is “total inhibition of plaque formation”.

These data come from patent publication US4452991A, “Flavan derivatives useful for impairing RNA virus replication in a cell” (priority 1979, dated 1984).
